From publication PMC10142505, “Synthesis, Evaluation of Enzyme Inhibition and Redox Properties of Potential Dual COX-2 and 5-LOX Inhibitors” (Pharmaceuticals, 2023)

| melting point | Structure (SMILES) |
| --- | --- |
| 71.5 to 72.5 °C | CCOc1ccccc1NC(=O)N(C)C [Compound 8, 3-(2-ethoxy-phenyl)-1,1-dimethyl-urea] |
| 178 to 181 °C | CCOc1ccccc1NC(=O)Nc1ccc([N+](=O)[O-])cc1 [Compound 10, 1-(2-ethoxy-phenyl)-3-(4-nitro-phenyl)-urea] |
| 130 to 132 °C | COC(=O)CNC(=O)c1cc(C(C)(C)C)c(O)c(C(C)(C)C)c1 [Compound 5, (3,5-di-tert-butyl-4-hydroxy-benzoylamino)-acetic acid methyl ester] |
| 158 to 159.5 °C | CN(C)C(=O)Nc1ccccc1C(=O)O [Compound 9, 2-(3,3-dimethyl-ureido)-benzoic acid] |
| 244.5 to 246.5 °C | CC(C)(C)c1cc(C=C2SC(=S)N(N)C2=O)cc(C(C)(C)C)c1O [Compound 13, 3-amino-5-(3,5-di-tert-butyl-4-hydroxy-benzylidene)-2-thioxo-thiazolidin-4-one] |
| 178.5 to 180 °C | C#CCNC(=O)c1cc(C(C)(C)C)c(O)c(C(C)(C)C)c1 [Compound 7, 3,5-di-tert-butyl-4-hydroxy-N-prop-2-ynyl-benzamide] |
| 182 to 183.5 °C | C=CCNC(=O)c1cc(C(C)(C)C)c(O)c(C(C)(C)C)c1 [Compound 6, N-allyl-3,5-di-tert-butyl-4-hydroxy-benzamide] |
| 117 to 119 °C | COC(=O)C(Cc1c[nH]cn1)NC(=O)c1cc(C(C)(C)C)c(O)c(C(C)(C)C)c1 (centres unmarked) [Compound 4, 2-(3,5-di-tert-butyl-4-hydroxy-benzoylamino)-3-(1H-imidazol-4-yl)-propionic acid methyl ester] |
